In one assay the test system is PC-3. As to the kind of experiment: Anti-proliferative activity against human PC3 cells measured after 96 hrs by MTT assay. Format: functional. The conditions noted are these: PC-3, 96 h.
The test system of the next assay is LNCaP. As to the kind of experiment: Anti-proliferative activity against human LNCAP cells measured after 96 hrs by MTT assay. Format: functional.
The target of assay [1] is Peptidyl-prolyl cis-trans isomerase NIMA-interacting 1 (Homo sapiens, UniProt Q13526). As to the kind of experiment: Inhibition of Pin1 (unknown origin) using Suc-Ala-Glu-cis-Pro-Phe-4-nitroanilide as substrate preincubated for 30 mins followed by substrate addition measured for 90 secs by protease-enzyme coupled assay.

Structures are written as SMILES.

Peptidyl-prolyl cis-trans isomerase NIMA-interacting 1, sequence (Q13526 whole entry): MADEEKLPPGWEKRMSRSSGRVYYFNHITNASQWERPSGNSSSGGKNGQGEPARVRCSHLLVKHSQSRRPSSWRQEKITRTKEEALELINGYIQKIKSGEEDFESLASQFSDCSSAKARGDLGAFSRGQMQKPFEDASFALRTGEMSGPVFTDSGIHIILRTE

Regarding `COC(=O)[C@@]1(C)C(=O)C(C(F)(F)F)=C[C@]2(C)[C@H]3C(=O)C=C4[C@@H]5[C@@H](C)[C@H](C)CC[C@]5(C)CC[C@@]4(C)[C@]3(C)CC[C@@H]12`, the GI50 turned out to be 3.78 µM with PC-3 and 7.82 µM with LNCaP.

With `C[C@H]1[C@H](C)CC[C@]2(C)CC[C@]3(C)C(=CC(=O)[C@@H]4[C@@]5(C)C=C(C#N)C(=O)[C@](C)(C(=O)OCc6ccccc6)[C@@H]5CC[C@]43C)[C@H]12`, the values for the concentration for 50% growth inhibition (GI50) in the assay on PC-3 and in the assay on LNCaP were 0.45 µM and 1.66 µM, respectively.

As to `CC(=O)O[C@@H]1CC[C@@]2(C)[C@@H](CC[C@]3(C)[C@@H]2C(=O)C=C2[C@@H]4[C@@H](C)[C@H](C)CC[C@]4(C)CC[C@]23C)[C@@]1(C)C(=O)O` [AKBA], the midpoint of inhibition in assay [1], the IC50, lay at 53 µM. The GI50 in the assay on PC-3 amounted to 31.9 µM; in the assay with LNCaP, 27.4 µM.

Regarding `C[C@H]1[C@H](C)CC[C@]2(C)CC[C@]3(C)C(=CC(=O)[C@@H]4[C@@]5(C)C=C(C#N)C(=O)[C@](C)(C(=O)N6CCCCC6)[C@@H]5CC[C@]43C)[C@H]12`, the 50% growth inhibitory concentration (GI50) in the assay with PC-3 was found to be 2.89 µM; with LNCaP, 1.14 µM.

As to `C[C@H]1[C@H](C)CC[C@]2(C)CC[C@]3(C)C(=CC(=O)[C@@H]4[C@@]5(C)C=C(C#N)C(=O)[C@](C)(C(=O)N6CCCC6)[C@@H]5CC[C@]43C)[C@H]12`, the GI50 amounted to 3.76 µM in the assay with PC-3 and 5.37 µM with LNCaP.

For the compound `C[C@H]1[C@H](C)CC[C@]2(C)CC[C@]3(C)C(=CC(=O)[C@@H]4[C@@]5(C)C=CC(=O)[C@](C)(C(=O)OCc6ccccc6)[C@@H]5CC[C@]43C)[C@H]12`, the GI50 in the assay with PC-3 and in the assay with LNCaP was greater than 12.5 µM each time.

Consider `C[C@H]1[C@H](C)CC[C@]2(C)CC[C@]3(C)C(=CC(=O)[C@@H]4[C@@]5(C)C=C(C#N)C(=O)[C@](C)(C(=O)O)[C@@H]5CC[C@]43C)[C@H]12`, for which the figures for the 50% growth inhibitory concentration (GI50) with PC-3 and in the assay on LNCaP were 0.18 µM and 0.7 µM, respectively.

For `C[C@H]1[C@H](C)CC[C@]2(C)CC[C@]3(C)C(=CC(=O)[C@@H]4[C@@]5(C)C=C(C(F)(F)F)C(=O)[C@](C)(C(=O)N6CCCCC6)[C@@H]5CC[C@]43C)[C@H]12`, the GI50 in the assay with PC-3 turned out to be 3.27 µM; in the assay with LNCaP, 3.21 µM.

In turn, `C[C@H]1[C@H](C)CC[C@]2(C)CC[C@]3(C)C(=CC(=O)[C@@H]4[C@@]5(C)C=C(C(F)(F)F)C(=O)[C@](C)(C(=O)N6CCNCC6)[C@@H]5CC[C@]43C)[C@H]12` yielded a half-maximal inhibitory concentration (IC50) in assay [1] of 9.6 µM. For the same compound, the 50% growth inhibitory concentration (GI50) in the assay on PC-3 turned out to be 1.07 µM; with LNCaP it was 2.18 µM.

For `C[C@H]1[C@H](C)CC[C@]2(C)CC[C@]3(C)C(=CC(=O)[C@@H]4[C@@]5(C)C=C(I)C(=O)[C@](C)(C(=O)O)[C@@H]5CC[C@]43C)[C@H]12`, the results for the GI50 with PC-3 and in the assay with LNCaP were 4.65 µM and 3.78 µM, respectively.

`C[C@H]1[C@H](C)CC[C@]2(C)CC[C@]3(C)C(=CC(=O)[C@@H]4[C@@]5(C)C=C(I)C(=O)[C@](C)(C(=O)OCc6ccccc6)[C@@H]5CC[C@]43C)[C@H]12`: the 50% growth inhibitory concentration (GI50) in the assay with PC-3 and with LNCaP was greater than 12.5 µM each time.

Turning to `C[C@H]1[C@H](C)CC[C@]2(C)CC[C@]3(C)C(=CC(=O)[C@@H]4[C@@]5(C)C=C(C(F)(F)F)C(=O)[C@](C)(C(=O)N6CCCC6)[C@@H]5CC[C@]43C)[C@H]12`, the GI50 is 2.64 µM in the assay on PC-3 and 3.29 µM in the assay with LNCaP.

For the compound `COC(=O)[C@@]1(C)C(=O)C(C#N)=C[C@]2(C)[C@H]3C(=O)C=C4[C@@H]5[C@@H](C)[C@H](C)CC[C@]5(C)CC[C@@]4(C)[C@]3(C)CC[C@@H]12`, the 50% growth inhibitory concentration (GI50) was 1.2 µM with PC-3 and 2.34 µM in the assay with LNCaP.

On to `C[C@H]1[C@H](C)CC[C@]2(C)CC[C@]3(C)C(=CC(=O)[C@@H]4[C@@]5(C)C=C(C(F)(F)F)C(=O)[C@](C)(C(=O)O)[C@@H]5CC[C@]43C)[C@H]12`, for which the 50% growth inhibitory concentration (GI50) with PC-3 came out at 4.38 µM; with LNCaP, 4.26 µM.

For the compound `COC(=O)[C@@]1(C)C(=O)C(I)=C[C@]2(C)[C@H]3C(=O)C=C4[C@@H]5[C@@H](C)[C@H](C)CC[C@]5(C)CC[C@@]4(C)[C@]3(C)CC[C@@H]12`, the GI50 with PC-3 and in the assay on LNCaP was greater than 12.5 µM in each case.

As for `C[C@H]1[C@H](C)CC[C@]2(C)CC[C@]3(C)C(=CC(=O)[C@@H]4[C@@]5(C)C=C(I)C(=O)[C@](C)(C(=O)N6CCCCC6)[C@@H]5CC[C@]43C)[C@H]12`, the 50% growth inhibitory concentration (GI50) in the assay with PC-3 and with LNCaP was greater than 12.5 µM each time.

For the compound `COC(=O)[C@@]1(C)C(=O)C=C[C@]2(C)[C@H]3C(=O)C=C4[C@@H]5[C@@H](C)[C@H](C)CC[C@]5(C)CC[C@@]4(C)[C@]3(C)CC[C@@H]12`, the GI50 in the assay on PC-3 and in the assay with LNCaP was greater than 12.5 µM in each case.

Take `C[C@H]1[C@H](C)CC[C@]2(C)CC[C@]3(C)C(=CC(=O)[C@@H]4[C@@]5(C)C=C(I)C(=O)[C@](C)(C(=O)N6CCC(N7CCCCC7)CC6)[C@@H]5CC[C@]43C)[C@H]12`: the values for the GI50 with PC-3 and with LNCaP were 4.22 µM and 3.59 µM, respectively.

Consider `C[C@H]1[C@H](C)CC[C@]2(C)CC[C@]3(C)C(=CC(=O)[C@@H]4[C@@]5(C)C=C(C(F)(F)F)C(=O)[C@](C)(C(=O)OCc6ccccc6)[C@@H]5CC[C@]43C)[C@H]12`, for which the 50% growth inhibitory concentration (GI50) with PC-3 was 5.11 µM; with LNCaP, 3.92 µM.

For `C[C@H]1[C@H](C)CC[C@]2(C)CC[C@]3(C)C(=CC(=O)[C@@H]4[C@@]5(C)C=C(I)C(=O)[C@](C)(C(=O)N6CCNCC6)[C@@H]5CC[C@]43C)[C@H]12`, the midpoint of inhibition in assay [1], the IC50, lay at 4.29 µM. The concentration for 50% growth inhibition (GI50) was determined as 3.36 µM in the assay with PC-3 and 2.98 µM in the assay with LNCaP.

For `CC1CCN(C(=O)[C@@]2(C)C(=O)C(I)=C[C@]3(C)[C@H]4C(=O)C=C5[C@@H]6[C@@H](C)[C@H](C)CC[C@]6(C)CC[C@@]5(C)[C@]4(C)CC[C@@H]23)CC1`, the GI50 in the assay on PC-3 and in the assay on LNCaP was greater than 12.5 µM throughout.

In the case of `CC1CCN(C(=O)[C@@]2(C)C(=O)C(C(F)(F)F)=C[C@]3(C)[C@H]4C(=O)C=C5[C@@H]6[C@@H](C)[C@H](C)CC[C@]6(C)CC[C@@]5(C)[C@]4(C)CC[C@@H]23)CC1`, the GI50 in the assay with PC-3 amounted to 2.48 µM; in the assay on LNCaP it was 4.71 µM.

As for `CC1CCN(C(=O)[C@@]2(C)C(=O)C(C#N)=C[C@]3(C)[C@H]4C(=O)C=C5[C@@H]6[C@@H](C)[C@H](C)CC[C@]6(C)CC[C@@]5(C)[C@]4(C)CC[C@@H]23)CC1`, the GI50 in the assay with PC-3 turned out to be 2.07 µM; with LNCaP, 3.82 µM.

In the case of `C[C@H]1[C@H](C)CC[C@]2(C)CC[C@]3(C)C(=CC(=O)[C@@H]4[C@@]5(C)C=C(I)C(=O)[C@](C)(C(=O)N6CCCC6)[C@@H]5CC[C@]43C)[C@H]12`, the GI50 with PC-3 and in the assay on LNCaP was greater than 12.5 µM in each case.

Consider `C[C@H]1[C@H](C)CC[C@]2(C)CC[C@]3(C)C(=CC(=O)[C@@H]4[C@@]5(C)C=C(C#N)C(=O)[C@](C)(C(=O)N6CCC(N7CCCCC7)CC6)[C@@H]5CC[C@]43C)[C@H]12`, for which the GI50 worked out at 0.13 µM with PC-3 and 0.67 µM in the assay on LNCaP.

Turning to `C[C@H]1[C@H](C)CC[C@]2(C)CC[C@]3(C)C(=CC(=O)[C@@H]4[C@@]5(C)C=C(C(F)(F)F)C(=O)[C@](C)(C(=O)N6CCC(N7CCCCC7)CC6)[C@@H]5CC[C@]43C)[C@H]12`, the GI50 was found to be 1.43 µM in the assay with PC-3 and 1.79 µM with LNCaP.

The values above are taken from ChEMBL document CHEMBL4000186, “Design and synthesis of novel 2-substituted 11-keto-boswellic acid heterocyclic derivatives as anti-prostate cancer agents with Pin1 inhibition ability” (Eur J Med Chem, 2017).
